Like-named read-outs stand apart in the source and are kept apart here.
How the values were obtained:
[1] = test system: JeKo1; test: In vitro cytotoxicity analysis, JeKo1; type: cell-based; details: Homo sapiens, JeKo-1
Description: The A549 lung cancer, WiDr colorectal cancer, MCF-7 breast cancer, PC-3 prostate cancer, and OVCAR-3 ovarian cancer cell lines were purchased from the American Type Culture Collection (ATCC, Manassas, Va.) and were maintained in growth media as recommended by the ATCC. The JeKo-1 and JVM-2 mantle cell lymphoma cell lines were purchased from the DSMZ (Brunswick, Germany) and were maintained in growth media as recommended by the vendor. The pediatric rhabdomyosarcoma Rh18 cell line was provided y Dr. P. Houghton (Ohio State University—Nationwide Children's Hospital, Columbus, Ohio) and were maintained in growth media as recommended by Dr. Houghton. All cell culture media were supplemented with L-glutamine and penicillin/streptomycin. All cells were grown under standard culture conditions in CO2 incubators, at 37° C., with 5% CO2, and 100% relative humidity.
Cell viabilities were determined by measuring the cleavage of (sodium 3′-[1-(phenylaminocarbonyl)-3,4-tetrazolium]-bis(4-methoxy-6-nitro)benzene sulfonic acid hydrate) (XTT) to a water-soluble orange formazan by mitochondrial dehydrogenase, following the manufacturer's instructions (Roche Applied Science, Indianapolis, Ind.). Briefly, cell lines were seeded at various cell densities depending on the cell type. The adherent cell lines were allowed to adhere overnight before compound addition, whereas the suspension cell lines were seeded the day of compound addition. Stock concentrations of the compounds were made in DMSO, diluted in culture media and subsequently added to the plates at various final concentrations, then incubated for 72 hours. After the incubation period, the XTT labeling reagent, containing the electron-coupling reagent, was added to each well and incubated for 4 hours. The absorbance of each well was then read at 490 nm with a reference wavelength of 690 nm using a VersaMax™ microplate reader (Sunnyvale, Calif.). Data are expressed as the percentage of growth compared to vehicle-treated cells, as calculated from absorbance and corrected for background absorbance.
Alternatively, cell lines were seeded in 100 μL cell culture medium in 96-well plates. Depending on the cell proliferation rate, cells were seeded at 4,000 to 6,000 cells/well. Suspension cell cultures were initiated with 20,000 cells/well. The cells were incubated overnight at 37° C., and then the drug treatments were started by adding 50 μL medium containing the corresponding drug dilution and DMSO. The final concentration of DMSO onto the cells was 0.5% v/v in all wells. The cells viability was determined using the CellTiter-Glo Luminescent Cell Viability Assay (Promega, Madison, Wis.). The CellTiter-Glo reagent was prepared according to the manufacturer's instructions, and then 50 μL reagent was added to each well for 1 h at rt. The luminescence was measured on an Envision Multilabel Plate Reader (PerkinElmer, Waltham, Mass.). The IC50 values were calculated from the dose-response curve analysis with GraphPad Prism 6.01 (GraphPad Software, La Jolla, Calif.) using the nonlinear regression model 4 Parameter Logistic. Nine concentrations were generated by 1:2 serial dilutions for each IC50 assay. Each drug concentration was evaluated in triplicate or quadruplicate.

[2] = test system: MDM2 alternative splicing in Rh18 cells; test: In vitro alternative splicing assay (MDM2, RT-PCR); type: cell-based; details: Rh18 cells, 8 h exposure; Table II
Procedure: Briefly, following an 8 h exposure of exponentially growing cells to drug, total RNA was isolated using TRIzol reagent (Invitrogen, Carlsbad, Calif.). Total RNA (1 μg) was used to convert the mRNA to cDNA by using random primers, Oligo(dT)16 and Omniscript Reverse Transcription Kit (Qiagen, Germantown, Md.). PCR analyses were performed using specific oligonucleotides (see Table I) and standard amplification protocols. PCR products were separated by agarose gel electrophoresis, visualized by ethidium bromide staining on an UV transilluminator, and recorded. PCR band sizes were calculated by comparing them to the standard EZ Load 100-bp PCR Molecular Ruler (BioRad Laboratories, Hercules, Calif.).

[3] = Mouse plasma stability (HPLC); type: in vitro ADME; details: mouse plasma at 37° C.
[4] = Solubility in phosphate buffered saline (HPLC); type: physicochemical; details: aqueous buffer, read-out: Buffer Soluble
[5] = test system: cytotoxicity or splicing modulation; test: Rapid onset of cytotoxicity or splicing modulation; type: cell-based; details: maximum cytotoxicity or splicing modulation within 5 hours of drug treatment
Procedure: The cell were seeded in of 100 μl of medium into 96-well plates (HeLa at 4×10^4 cell/well; SK_MEL_2 at 6×10^4 cell/well), they were allowed to attach overnight, and then treatments started by adding 50 μl of medium containing Sudemycin D6 to produce a final concentration of 1 μM and DMSO to 0.5% v/v final into the experimental well. Continuous drug treatments were run in the same plate, using concentrations of 0, 62.5, 125, 250, 500 & 1000 nM final. DMSO was added into all wells, including non-treated wells to 0.5% v/v final concentration. For wells where the drug was withdrawn, the medium was carefully aspirated after 1, 2, 3 and 4 hours after the addition of the drug, the cells were washed once with PBS and then 150 μl of fresh cell culture medium containing 0.5% v/v DMSO was added into all washed out wells. After 72 hours of the addition of drug, the cell viability was determined using CellTiter-Glo luminescent cell viability assay (Promega, Madison, Wis.), and Sudemycin D6 cytotoxicity was calculated as the percentage of cell proliferation inhibition against the control treatment DMSO.

[6] = test system: SK-MEL-2; test: Drug combination assay, SK-MEL-2; type: cell-based; details: for CI in SK-MEL-2 with compound 19: Combination Index at ED50, CalcuSyn 2.1, listed drug + compound 19
Procedure: (§1) Preliminary cytotoxic screenings for each drug used in drug combination assays were performed to determine their cytotoxic dose range. […] Eight concentrations were established by 1:3 serial dilutions of the single drugs and their combinations with the splicing modulators. All drug concentrations were evaluated in triplicate in 96-well cell culture plates. Assays of individual drugs and drug combinations were run on the same tissue culture plate. Cell viability was determined using the CellTiter-Glo reagent.
(§2) Luminescence data obtained from the cell viability determinations were formatted per the requirements of the analytical software (viability data range: >0 and <1). The formatted data were analyzed with the software CalcuSyn 2.1 (Biosoft, Cambridge, UK), which provides quantitative CI values for the drug interaction analyses (see ranges in Supplementary Table S2).

[7] = test system: cell lines investigated; test: Drug combination assays, cell line not stated; type: cell-based
Procedure: as §1, §2

[8] = test system: Sk-N-AS; test: Drug combination assay, Sk-N-AS neuroblastoma; type: cell-based; details: neuroblastoma cell line SK-NA-S; CalcuSyn 2.1
Procedure: as §1, §2

[9] = listed drug combined with compound 19, Ineffective = drug IC50 much higher than 1 μM

CC(/C=C/[C@@H]1C[C@]2(CO2)CC(C)(C)O1)=C\C[C@H]1CC[C@@H](NC(=O)/C=C\[C@H](C)OC(N)=O)CC1
IC50 ([1]; Table II): 100 nM

CNC(=O)O[C@@H](C)/C=C\C(=O)N[C@H]1CC[C@@H](C/C=C(C)/C=C/[C@@H]2C[C@]3(CO3)CC(C)(C)O2)CC1 [drawing 208]
MDM2 Splicing Effects [2]: Yes
IC50 ([1]; Table II): 22 nM
Plasma Stability [3]: Yes (“Yes” indicates mouse plasma stability is >5 hours in mouse plasma at 37 °C as determined by HPLC.)
solubility [4]: > 10 µM
Rapid Onset [5]: Yes (“Yes” indicates maximum cytotoxicity or splicing modulation is seen within 5 hours of drug treatment.)

COc1ccc2c(c1)/C(=C/c1cnc[nH]1)C(=O)N2 [SU 9516]
CI in SK-MEL-2 with compound 19 [6]: 0.83
Interaction Type [6, 9]: Antagonism (1.45-3.3)

CCCN(C)C(=O)O[C@@H](C)/C=C\C(=O)N[C@H]1CO[C@@H](C/C=C(C)/C=C/[C@@H]2C[C@]3(CO3)CC(C)(C)O2)OC1
IC50 ([1]; Table III): 610 nM

CCCCCCCCCCCCNC(=O)NC1CCCCC1 [NCND]
Interaction Type [6, 9]: Slightly
cytotoxic effect of drug alone ([7]; single drug in combination assays): Neither AUDA nor NCND alone produced a cytotoxic effect

C/C(=C\C(=O)Nc1ccccc1C(=O)O)c1ccc2ccccc2c1 [BIBR 1532]
Interaction Type [6]: Ineffective

CNC(=O)c1cc(Oc2ccc(NC(=O)Nc3ccc(Cl)c(C(F)(F)F)c3)cc2)ccn1 [Sorafenib]
CI in SK-MEL-2 with compound 19 [6]: 0.43
drug interaction with compound 19 [8]: predominantly synergistic
drug interaction with compound 19 (panel of 23 drugs) [7]: second strongest synergistic agent

CC(/C=C/[C@@H]1C[C@]2(CO2)CC(C)(C)O1)=C\C[C@H]1CC[C@@H](NC(=O)/C=C\[C@H](C)OC(=O)N(C)CCN(C)C)CC1
IC50 ([1]; Table II): 170 nM
solubility [4]: > 10 µM

COc1cc(C2Oc3cc([C@H]4Oc5cc(O)cc(O)c5C(=O)[C@@H]4O)ccc3OC2CO)ccc1O (some centres unmarked) [Silibinin]
CI in SK-MEL-2 with compound 19 [6]: 0.89
Interaction Type [6, 9]: Moderate

COc1ccc(C2=N[C@@H](c3ccc(Cl)cc3)[C@@H](c3ccc(Cl)cc3)N2C(=O)N2CCNC(=O)C2)c(OC(C)C)c1 [Nutlin-3]
Interaction Type [6, 9]: Ineffective

O=C(O)c1nn(Cc2ccc(Cl)cc2Cl)c2ccccc12 [Lonidamine]
Interaction Type [6, 9]: Ineffective

CC(/C=C/[C@@H]1C[C@]2(CO2)CC(C)(C)O1)=C\C[C@H]1OC[C@@H](NC(=O)/C=C\[C@H](C)OC(=O)N(C)C)CO1
IC50 ([1]; Table III): 300 nM

CC(/C=C/[C@@H]1C[C@]2(CO2)CC(C)(C)O1)=C\C[C@H]1OC[C@@H](NC(=O)/C=C\[C@H](C)OC(=O)NC(C)(C)C)CO1
IC50 ([1]; Table III): > 1000 nM

CO[C@@]12[C@H](COC(N)=O)C3=C(C(=O)C(C)=C(N)C3=O)N1C[C@@H]1N[C@@H]12 [Mitomycin C]
Interaction Type [6]: Ineffective

Cc1ncc(C[n+]2csc(CCO)c2C)c(=O)[nH]1 [Oxythiamine]
Interaction Type [6, 9]: Ineffective

COc1cccc2c1C(=O)c1c(O)c3c(c(O)c1C2=O)C[C@@](O)(C(=O)CO)C[C@@H]3O[C@H]1C[C@H](N)[C@H](O)[C@H](C)O1 [Doxorubicin]
Interaction Type [6, 9]: Ineffective

CC(C)C[C@H](NC(=O)[C@H](Cc1ccccc1)NC(=O)c1cnccn1)B(O)O [Bortezomib]
Interaction Type [6, 9]: Antagonism (1.45-3.3)

CCCCN(C)C(=O)O[C@@H](C)/C=C\C(=O)N[C@H]1CO[C@@H](C/C=C(C)/C=C/[C@@H]2C[C@]3(CO3)CC(C)(C)O2)OC1
IC50 ([1]; Table III): 690 nM

CC[C@@]1(O)C(=O)OCc2c1cc1n(c2=O)Cc2cc3ccccc3nc2-1 [Camptothecin]
CI in SK-MEL-2 with compound 19 [6]: 0.74
Interaction Type [6, 9]: Antagonism (1.45-3.3)

Cn1c(=O)n(-c2ccc(C(C)(C)C#N)cc2)c2c3cc(-c4cnc5ccccc5c4)ccc3ncc21 [BEZ 235]
CI in SK-MEL-2 with compound 19 [6]: 0.21
Interaction Type [6, 9]: Strong
drug interaction with compound 19 [8]: strong synergism
drug interaction with compound 20 [8]: strong synergism
drug interaction with compound 19 (panel of 23 drugs) [7]: strongest synergy

Cc1ccc(NC(=O)c2ccc(CN3CCN(C)CC3)cc2)cc1Nc1nccc(-c2cccnc2)n1 [Imatinib]
Interaction Type [6, 9]: Antagonism (1.45-3.3)

COC(=O)C[C@](O)(CCC(C)(C)O)C(=O)O[C@@H]1C(OC)=C[C@]23CCCN2CCc2cc4c(cc2[C@H]13)OCO4 [Harringtonine]
Interaction Type [6, 9]: Antagonism (1.45-3.3)

COc1cc([C@@H]2c3cc4c(cc3[C@@H](O[C@@H]3O[C@@H]5CO[C@@H](C)O[C@H]5[C@H](O)[C@H]3O)[C@H]3COC(=O)[C@H]23)OCO4)cc(OC)c1O [Etoposide]
Interaction Type [6]: Ineffective

CC(/C=C/[C@@H]1C[C@]2(CO2)CC(C)(C)O1)=C\C[C@H]1OC[C@@H](NC(=O)/C=C\[C@H](C)OC(=O)N(C)C(C)(C)C)CO1
IC50 ([1]; Table III): 780 nM

Cc1[nH]c2ccccc2c1CCNCc1ccc(/C=C/C(=O)NO)cc1 [Panobinostat]
CI in SK-MEL-2 with compound 19 [6]: 0.76

CC(/C=C/[C@@H]1C[C@]2(CO2)CC(C)(C)O1)=C\C[C@H]1OC[C@@H](NC(=O)/C=C\[C@H](C)OC(=O)N(C)C(C)C)CO1
IC50 ([1]; Table III): 700 nM

O=c1[nH]cc(F)c(=O)[nH]1 [5-Fluorouracil]
Interaction Type [6, 9]: Ineffective^a

CC(=O)O[C@H]1C(=O)[C@@]2(C)[C@H]([C@H](OC(=O)c3ccccc3)[C@]3(O)C[C@H](OC(=O)[C@H](O)[C@@H](NC(=O)c4ccccc4)c4ccccc4)C(C)=C1C3(C)C)[C@]1(OC(C)=O)CO[C@@H]1C[C@@H]2O [Taxol]
Interaction Type [6, 9]: Antagonism (1.45-3.3)

NC(=O)NO [Hydroxyurea]
Interaction Type [6]: Ineffective
